Entries after “also recorded” stand apart in the source; their conditions may differ.
Columns and labels:
AKT = experiment: Radiation-induced AKT activation; type: cell-based
Solubility = type: physicochemical
SKMG3-CD8-EGFR cells [1] = experiment: Cell cycle distribution by flow cytometry; type: cell-based, human; settings: 10 μM NGI-1, 4 Gy
Description: Cell cycle distribution was determined following treatment with vehicle, radiation and/or 10 uM NGI-1. Cells were trypsinized and centrifuged, washed once with ice-cold PBS, fixed with ice-cold 70% ethanol and stored overnight at −20° C. After washing twice with PBS, they were incubated for 30 minutes at room temperature in 200 μL of Guava Cell Cycle Reagent (Guava Technologies). Cytofluorometric acquisitions were performed on a LSRII cytometer (BD Biosciences). First-line analysis was performed with FlowJo software, upon gating of the events characterized by normal forward and side scatter parameters and discrimination of doublets in a FSC-A vs. FSC-H bivariate plot. Approximately 50,000 cells were analyzed per experiment.
The CD8 cDNA was a gift from Paula Kavathas (Yale University). The CD8-EGFR was constructed according to a strategy that generated a constitutively active IGF-1R (24). The extracellular domain of CD8 was PCR amplified with a 5′ XbaI and 3′ SalI restriction site and cloned in-frame with the intracellular kinase domain of EGFR using the pDCB5-EGFR plasmid. SKMG3-CD8-EGFR cells were generated by Lipofectamine (Life Technologies) transfection of the plasmid followed by selection with 500 μg/ml G418. Expression of CD8-EGFR was validated by western blot analysis of the wild type and CD8-EGFR.

SKMG3-CD8-EGFR cells [2] = experiment: Phospho-γH2AX foci formation; type: cell-based, human
Description: To determine histone H2AX phosphorylation (γH2AX), cells were cultured on glass cover slips and pre-treated with either vehicle or NGI-1 for 48 hours followed by radiation treatment. Samples were fixed with 4% neutral-buffered formaldehyde, washed (0.1% triton in PBS for 30 minutes) and incubated for 1 hour with protein-blocking solution (PBS containing 10% normal goat-horse serum; Sigma-Aldrich, Saint Louis, Mich., US). Next, the slides were incubated with primary anti-phospho-histone γH2AX S139 (1:500, Millipore-Upstate, Billerica, Mass., US) followed by incubation with secondary antibody Alexa Fluor 555-conjugated goat anti-mouse IgG (1:750, Molecular probes/Invitrogen, Carlsbad, Calif., US), for 1 hour at room temperature. Nuclei were stained using DAPI containing vectashield mounting solution (Vector Labs). Confocal cellular images were captured with an inverted Zeiss LSM 510 Pascal laser confocal microscope (C. Zeiss, Jenna, Germany), using a 63/1.4 plan-apochromat objective. Five randomly selected fields s per slide were analyzed. Cells were counted using the ImageJ program, public domain Java image processing software.
The CD8 cDNA was a gift from Paula Kavathas (Yale University). The CD8-EGFR was constructed according to a strategy that generated a constitutively active IGF-1R (24). […]

NCI-H1838 = experiment: Lung cancer cell line viability screen; type: cell-based; settings: Homo sapiens; NCI-H1838, NSCLC, EGFR amplified; read-out: NGI-1 (IC50)
Description: (§1) NGI-1 activity was screened in 94 lung cancer cell lines at the Center for Molecular Therapeutics at the Massachusetts General Hospital Center for Cancer Research with previously described methods (Garnett et al., Nature, 483(7391):570-5 (2012)). Briefly, cells were treated in 384-well microplates using 9 serial NGI-1 dilutions, returned to an incubator for 96 hours, then stained with 55 μg/ml resazurin (Sigma) prepared in Glutathione-free media for 4 hours. Fluorescent signal intensity was quantified with a plate reader at excitation and emission wavelengths of 535/595 nm to determine viability. Viability ratio across the 9 doses were fitted to determine the half maximal inhibitory concentration (IC50).

Calu-3 = experiment: Lung cancer cell line viability screen; type: cell-based; settings: Homo sapiens; Calu-3, NSCLC, ErbB2 amplified; read-out: NGI-1 (IC50)
Description: as §1

LC-1F = experiment: Lung cancer cell line viability screen; type: cell-based; settings: NSCLC, read-out: NGI-1 (IC50)
Description: as §1

IST-SL2 = experiment: Lung cancer cell line viability screen; type: cell-based; settings: IST-SL2, SCLC; 96 hours; read-out: NGI-1 (IC50)
Description: as §1

A-427 = experiment: Lung cancer cell line viability screen; type: cell-based; settings: Homo sapiens; A-427, NSCLC; read-out: NGI-1 (IC50)
Description: as §1

NCI-H2110 = experiment: Lung cancer cell line viability screen; type: cell-based; settings: NCI-H2110, SCLC; read-out: NGI-1 (IC50)
Description: as §1

EMC-BAC-1 = experiment: Lung cancer cell line viability screen; type: cell-based; settings: EMC-BAC-1, NSCLC, ErBB3 Y523C; read-out: NGI-1 (IC50)
Description: as §1

BEN = experiment: Lung cancer cell line viability screen; type: cell-based; settings: NSCLC, read-out: NGI-1 (IC50)
Description: as §1

PC-3 [JPC-3] = experiment: Lung cancer cell line viability screen; type: cell-based; settings: NSCLC, EGFR 747-749 del, read-out: NGI-1 (IC50)
Description: as §1

RERF-LC-Sq1 = experiment: Lung cancer cell line viability screen; type: cell-based; settings: RERF-LC-Sq1, NSCLC; read-out: NGI-1 (IC50)
Description: as §1

RERF-LC-MS = experiment: Lung cancer cell line viability screen; type: cell-based; settings: NSCLC, read-out: NGI-1 (IC50)
Description: as §1

HCC827-GR cells = experiment: Confocal microscopy of EGFR and phosphorylated MET localization; type: cell-based; settings: detected in control samples
Description: For immunofluorescence, HCC827-GR cell lines were grown on glass coverslips to 80% confluence. Cell cultures were washed with PBS and fixed with 4% (w/v) formaldehyde in PBS for 30 min at 37° C. After washing with PBS, cells were permeabilized with 0.1% v/v Triton X-100 in PBS for 10 min, rinsed three times in PBS and treated with 5% w/v bovine serum albumin for 1 h. Cells were then incubated overnight at 4° C. with mouse anti-EGFR pAb (sc-03; Santa Cruz Biotechnology; 1:800) and rabbit anti-MET mAb (Cell Signaling; 1:1,000) primary antibodies and for 1 h at room temperature with either Alexa Fluor 543-conjugated goat anti-rabbit IgG or Alexa Fluor 488-conjugated goat anti-mouse IgG (ThermoFisher Scientific; 1:1,000) secondary antibodies. All antibodies were diluted in PBS containing 5% w/v bovine serum albumin. Nuclei were stained using ToPro3 (Invitrogen). Confocal cellular images were captured with an inverted Zeiss LSM 510 Pascal laser confocal microscope (Carl Zeiss, Jenna, Germany), using a 63/1.4 Plan-Apochromat objective.

With `Cc1cnc(NC(=O)c2cc(S(=O)(=O)N(C)C)ccc2N2CCCC2)s1` [NGI-1, 5-(dimethylsulfamoyl)-N-(5-methyl-1,3-thiazol-2-yl)-2-(pyrrolidin-1-yl)benzamide] the “radiation-induced activation of AKT” value (AKT; CD8-EGFR expressing SKMG3 cells) was “not in the CD8-EGFR expressing SKMG3 cells”, the AKT activation (AKT; T98G cells) was “does not block AKT activation” and the “radiation-induced activation of AKT” value (AKT; parental SKMG3 cells) was “blocks”. The solubility (Solubility) was “low solubility; also recorded: solubility remains a significant challenge”, the “G1 cell cycle arrest caused by NGI-1, alone and after exposure to radiation” value (SKMG3-CD8-EGFR cells [1]) was “eliminated the G1 cell cycle arrest” and the phospho-γH2AX foci formation (SKMG3-CD8-EGFR cells [2]) was “no effect”. It also gave an IC50 (NCI-H1838) of 4.29 µM, an IC50 (Calu-3) of 8.71 µM and an IC50 (LC-1F) of 7.94 µM. For the same molecule, the IC50 (IST-SL2) was 2.63 µM, the IC50 (A-427) was 4.92 µM and the IC50 (NCI-H2110) was 9.01 µM. It also gave an IC50 (EMC-BAC-1) of 4.1 µM, an IC50 (BEN) of 9.72 µM and an IC50 (PC-3 [JPC-3]) of 4.9 µM. The IC50 (RERF-LC-Sq1) was 7.39 µM, the IC50 (RERF-LC-MS) was 8.07 µM and the “EGFR detected near the cell surface” value (HCC827-GR cells) was “not in NGI-1 treated samples”.

From patent US10765638B2, “Particle formulation with polycation complex” (Yale University, priority 2017, dated 2020)
